Results on three molecules are retold here after patent publication US20080275063A1, “Inhibitors of protein kinases” (priority 2007, published 2008).

The subject of data set [1] is Tau protein at Serin396 in differentiated SH-SY5Y cells. The data set can be described thus: In vitro SH-SY5Y assay, tau phosphorylation. It counts as cell-based, human. Conditions: RA- and BDNF-differentiated SH-SY5Y cells, 90-120 min incubation, Western Blot or ELISA. The source says: Abnormal tau phosphorylation and deregulated CDK5/p35 activity are closely linked to each other and represent hallmarks of neurodegenerative diseases such as Alzheimer's disease, Parkinson's disease or Amyotrophic lateral sclerosis. The human neuroblastoma cell line SH-SY5Y can be utilized as an in vitro model to investigate CDK5 function and the efficacy of CDK5 specific inhibitors. SH-SY5Y cells express tau protein which harbors various phosphorylation sites known to be phosphorylated by several kinases including CDK5. SH-SY5Y cells can be differentiated into neuron-like cells by exposure to 10 μM all trans-retinoic acid for 3 days and subsequent exposure to 50 ng/ml human recombinant brain-derived neurotrophic factor for 3-5 days, thereby upregulating neuronal markers, including tau protein. In addition CDK5 and p35 protein levels were increased during differentiation. […]
Concentrations of total tau, pS396 tau and pT231 tau within the cell culture lysates are measured by using commercial ELISA Kits (BioSource: human total tau: KHB0042; human pS396 tau: KHB7031; human pT231 tau: KHB7051) according to the manufacturers instructions or by using Western Blots probing with total and phospho-specific antibodies (antibodies: total tau: Santa Cruz, sc-21796; pS396 tau: Santa Cruz, sc-12414; pT231 tau, AT180: Pierce Endogen, MN1040; pS202 tau: AT8: Pierce Endogen, MN1020). […]

On to `CCOc1ccccc1-c1cc(Nc2ccc(CS(N)(=O)=O)cc2)ncn1` [Compound 6, {4-[6-(2-Ethoxy-phenyl)-pyrimidin-4-ylamino]-phenyl}-methanesulfonamide], for which the melting point (commonly the temperature, or range, at which the solid turns liquid) lay in the range of 213.5 to 215.1 °C.

As for `NS(=O)(=O)Cc1ccc(Nc2cc(-c3ccccc3OCc3ccccc3)ncn2)cc1` [Compound 8, {4-[6-(2-Benzyloxy-phenyl)-pyrimidin-4-ylamino]-phenyl}-methanesulfonamide], the “effect on Tau phosphorylation at Serin396” value in data set [1] is “significant inhibitory effect”. `COCCCNS(=O)(=O)Cc1cccc(Nc2cc(-c3ccccc3OC)ncn2)c1` [Reference compound 3, C-{3-[6-(2-methoxy-phenyl)-pyrimidin-4-ylamino]-phenyl}-N-(3-methoxy-propyl)-methanesulfonamide]: the melting point was in the range of 149.2 to 150.8 °C.
